TGI and GI50 data for twelve compounds are collected here from PubChem BioAssay (NCI).

Each structure is given as a SMILES string.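 Results reflect a 48-hour exposure of cells in 96-well plates to compound at five concentrations. Abbreviation: GI50, concentration required for 50% inhibition of growth. The concentration for full growth arrest is given as TGI.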 A value given as a limit tells only on which side of the number the result lay.

Among the test systems are A549 NSCLC; DU-145 prostate; HCT-116 colon; NCI-H226 lung; NCI/ADR-RES ovarian; SF-539 CNS; SK-OV-3 ovarian; TK-10 renal; U251 CNS; UACC-62 melanoma.
Test in all cases: NCI-60 cell line screen, 48 h

Take `Cc1cc2ccccc2n1CC(=O)N1CCCC1`: the TGI with A549 NSCLC, in the assay on DU-145 prostate, with HCT-116 colon, in the assay with NCI-H226 lung, with NCI/ADR-RES ovarian and in the assay on SF-539 CNS was above 100 µM in each case. The TGI in the assay with SK-OV-3 ovarian, in the assay on TK-10 renal, in the assay on U251 CNS and in the assay on UACC-62 melanoma was above 100 µM in each case.
Consider `Cc1ccc(NC(=S)Nc2c(C)n(C)n(-c3ccccc3)c2=O)cc1`, for which the TGI in the assay with A549 NSCLC, in the assay on DU-145 prostate, with HCT-116 colon, in the assay on NCI-H226 lung, with NCI/ADR-RES ovarian and with SF-539 CNS was above 100 µM in each case. The TGI with SK-OV-3 ovarian, in the assay with TK-10 renal, with U251 CNS and in the assay on UACC-62 melanoma was above 100 µM in each case.
Regarding `N/N=C1/C(=N/O)CCc2nonc21`, the TGI in the assay with A549 NSCLC, with DU-145 prostate, in the assay on HCT-116 colon, with NCI-H226 lung, in the assay on NCI/ADR-RES ovarian and in the assay with SF-539 CNS was above 100 µM each time. The TGI with SK-OV-3 ovarian, with TK-10 renal, in the assay on U251 CNS and in the assay with UACC-62 melanoma was above 100 µM each time.
On to `Cc1cc(=O)n2nc(CSc3nnc(N)s3)sc2n1`, for which the TGI in the assay with A549 NSCLC, in the assay on DU-145 prostate, with HCT-116 colon, with NCI-H226 lung, in the assay on NCI/ADR-RES ovarian and in the assay with SF-539 CNS was above 100 µM throughout. For the same compound, the TGI with SK-OV-3 ovarian, in the assay with TK-10 renal, with U251 CNS and in the assay with UACC-62 melanoma was above 100 µM throughout.
Regarding `CCOC(=O)C1=C(C)C(C(=O)OC)/C(=C/c2cccc3cccnc23)C1=O` (centres undefined), the TGI in the assay on A549 NSCLC, in the assay with DU-145 prostate, in the assay with HCT-116 colon, in the assay on NCI-H226 lung, in the assay with NCI/ADR-RES ovarian and in the assay on SF-539 CNS was above 10 µM throughout. Moreover, the TGI in the assay on SK-OV-3 ovarian, in the assay on TK-10 renal, with U251 CNS and in the assay with UACC-62 melanoma was above 10 µM in each case.
As for `N#Cc1c(N2CCCC2)ncn(Cc2ccccc2)c1=S`, the TGI in the assay with A549 NSCLC, in the assay on DU-145 prostate, in the assay with HCT-116 colon, in the assay with NCI-H226 lung, with NCI/ADR-RES ovarian and in the assay with SF-539 CNS was above 100 µM throughout. In addition, the TGI in the assay with SK-OV-3 ovarian, in the assay with TK-10 renal, with U251 CNS and with UACC-62 melanoma was above 100 µM each time.
As for `COc1cc(/C=C2\N=C(c3ccccc3)N(/N=C3\C(=O)Nc4ccccc43)C2=O)cc(OC)c1OC`, the TGI in the assay with A549 NSCLC, with DU-145 prostate, in the assay with HCT-116 colon, in the assay with NCI-H226 lung, in the assay on NCI/ADR-RES ovarian and in the assay with SF-539 CNS was above 100 µM in each case. Also, the TGI with SK-OV-3 ovarian, in the assay on TK-10 renal, in the assay on U251 CNS and with UACC-62 melanoma was above 100 µM each time.
On to `COc1c(OC)c(O)c2c(=O)c(OC)c(-c3ccc4c(c3)OCO4)oc2c1O`, for which the TGI with A549 NSCLC, in the assay with DU-145 prostate, with HCT-116 colon, in the assay on NCI-H226 lung, in the assay on NCI/ADR-RES ovarian and with SF-539 CNS was above 100 µM throughout. Moreover, the TGI with SK-OV-3 ovarian, in the assay with TK-10 renal, with U251 CNS and in the assay with UACC-62 melanoma was above 100 µM throughout.
`CC(NC(=O)OCc1ccccc1)NC(=O)C(CC(=O)OC(C)(C)C)NC(=O)OC(C)(C)C` (centres undefined): the TGI with A549 NSCLC, in the assay on DU-145 prostate, in the assay with HCT-116 colon, with NCI-H226 lung, in the assay on NCI/ADR-RES ovarian and in the assay with SF-539 CNS was above 100 µM throughout. For the same compound, the TGI in the assay with SK-OV-3 ovarian, with TK-10 renal, in the assay with U251 CNS and in the assay with UACC-62 melanoma was above 100 µM throughout.
Take `Cc1cccc2nc3cccc(C(=O)NCCC[N+](C)(CCCNC(=O)c4cccc5nc6cccc(C)c6nc45)Cc4c([N+](=O)[O-])ncn4C)c3nc12`: the GI50 is 8.19 µM in the assay with A549 NSCLC; 20.8 µM with DU-145 prostate; 0.11 µM with NCI-H226 lung; 131 µM in the assay on NCI/ADR-RES ovarian; 1.59 µM with SF-539 CNS; above 1100 µM with SK-OV-3 ovarian. For the same compound, the GI50 in the assay on TK-10 renal was 118 µM; in the assay on U251 CNS it was 18.2 µM; in the assay on UACC-62 melanoma, 38.8 µM. The TGI in the assay on A549 NSCLC was above 1100 µM; in the assay on DU-145 prostate it was above 1100 µM; in the assay with HCT-116 colon, above 1100 µM; with NCI-H226 lung, 267 µM; in the assay on NCI/ADR-RES ovarian, above 1100 µM; with SF-539 CNS it was 9.07 µM. The TGI in the assay on SK-OV-3 ovarian, in the assay on TK-10 renal, in the assay with U251 CNS and in the assay with UACC-62 melanoma was above 1100 µM in each case.
Take `CCOC(=O)c1c2c(n(-c3ccc(OC)cc3)c1C)C(=O)C(=O)c1ccccc1-2`: the TGI in the assay with A549 NSCLC is 4.46 µM; in the assay with DU-145 prostate, 3.06 µM; in the assay on HCT-116 colon it was 3 µM; in the assay on NCI-H226 lung, 4.12 µM; with NCI/ADR-RES ovarian, 2.01 µM; in the assay on SF-539 CNS, 1.76 µM. For the same compound, the TGI came to 6.03 µM in the assay with SK-OV-3 ovarian, 3.33 µM with TK-10 renal, 2.63 µM in the assay on U251 CNS and 3.28 µM with UACC-62 melanoma.
On to `COCN1CCN=c2c1c1c3c(c4ccccc4n23)CCC1`, for which the TGI in the assay with A549 NSCLC, with DU-145 prostate, in the assay with HCT-116 colon, in the assay on NCI-H226 lung, in the assay on NCI/ADR-RES ovarian and in the assay on SF-539 CNS was above 100 µM in each case. For the same compound, the TGI with SK-OV-3 ovarian, with TK-10 renal, with U251 CNS and in the assay with UACC-62 melanoma was above 100 µM throughout.
